The text below walks through data of US20230339886A1 (University of Florida Research Foundation, Incorporated, priority 2020, published 2023).

Bounds are passed on as bounds.

One may read the EC50 as the concentration needed to bring the measured effect to its halfway point.

T1 sequence (P20393 with tags, fused parts or gaps DEL324-422): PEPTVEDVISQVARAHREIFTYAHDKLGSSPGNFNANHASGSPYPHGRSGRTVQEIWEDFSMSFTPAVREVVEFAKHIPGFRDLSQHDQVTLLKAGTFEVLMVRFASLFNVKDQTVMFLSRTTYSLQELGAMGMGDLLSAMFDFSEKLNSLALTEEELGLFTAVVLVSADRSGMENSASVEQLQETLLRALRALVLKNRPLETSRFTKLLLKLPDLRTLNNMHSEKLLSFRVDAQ
T1 sequence (Q9Y618 2335-2356 partner limits assumed): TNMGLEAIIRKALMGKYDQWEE

The first test addresses T1, REV-ERBα LBD (human; residues 281-614 Δ324-422) (Homo sapiens, UniProt P20393, DEL324-422).
T1 construct: 6×Histag-REV-ERBα LBD (human; residues 281-614 Δ324-422); made in house; host or cells: Escherichia coli
The experiment in a line: TR-FRET corepressor interaction assay (REV-ERBα LBD, FITC-SMRT peptide). It is filed as biochemical. The settings on record: FITC-SMRT peptide, read-out: REVERBα agonism (EC50 class, FRET assay). The essentials: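 Compound serial dilutions (in DMSO, triplicate) incubated 2 h at 4 °C; Tb donor excited at 340 nm, emission read at 495 nm and FITC acceptor at 520 nm. TR-FRET ratio (520/495 nm) plotted against ligand concentration and fitted to a sigmoidal dose-response curve.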
On the technique in general: In TR-FRET formats the signal depends on donor and acceptor labels being close together.
On to `CC(C)(C)Cn1cc([C@@H](CF)NS(=O)(=O)C2CCC2)c2cc(F)c(-c3ccccc3C(F)(F)F)cc21` [Example 436, (S)—N-(2-fluoro-1-(5-fluoro-1-neopentyl-6-(2-(trifluoromethyl)phenyl)-1H-indol-3-yl)ethyl)cyclobutanesulfonamide], for which the EC50 is less than 500 nM. Turning to `CC(C)(C)Cn1cc([C@H](NS(=O)(=O)C2CC2)C(F)(F)F)c2ccc(-c3ncccc3C#N)cc21` [Example 468, (S)—N-(1-(6-(3-cyanopyridin-2-yl)-1-neopentyl-1H-indol-3-yl)-2,2,2-trifluoroethyl)cyclopropanesulfonamide], the EC50 was less than 500 nM. Take `CCOC(=O)[C@@H](NS(=O)(=O)C1CC1)c1cn(CC(C)(C)C)c2cc(-c3ccccc3C(F)(F)F)ccc12` [Example 430, ethyl (S)-2-(cyclopropanesulfonamido)-2-(1-neopentyl-6-(2-(trifluoromethyl)phenyl)-1H-indol-3-yl)acetate]: the EC50 is greater than 3000 nM.

The test is the same for the next values; noted with them: Table 2, read-out: REVERBα agonism (EC50 class, FRET assay).
For the molecule `CC(c1ccccc1)n1cc(CCNS(=O)(=O)N(C)C)c2ccc(Br)cc21` (stereo not drawn) [Example 159, ({2-[6-bromo-1-(1-phenylethyl)-1H-indol-3-yl]ethyl}sulfamoyl)dimethylamine], the EC50 was 500 to 3000 nM. Turning to `CCN(CCc1cn(CC)c2cc(-c3ccncc3)ccc12)S(=O)(=O)N(C)C` [Example 133, N′-{2-[6-(pyridin-4-yl)-1-ethyl-1H-indol-3-yl]ethyl}-N′-ethyl-N,N-dimethylsulfuric diamide], the half-maximal effective concentration (EC50) was in the range of 500 to 3000 nM. On to `CC(C)(C)Cn1cc([C@H](NS(=O)(=O)C2CC2)C(F)(F)F)c2ccc(-c3ncccn3)cc21` [Example 382, (S)—N-(2,2,2-trifluoro-1-(1-neopentyl-6-(pyrimidin-2-yl)-1H-indol-3-yl)ethyl)cyclopropanesulfonamide], for which the EC50 is 500 to 3000 nM. In the case of `CC(C)(C)Cc1cn(CCNS(=O)(=O)C2CC2)c2ccc(-c3ccccc3Cl)cc12` [Example 213, N-(2-(5-(2-chlorophenyl)-3-neopentyl-1H-indol-1-yl)ethyl)cyclopropanesulfonamide], the EC50 is less than 500 nM.

For `CC(C)S(=O)(=O)NCCn1cc(CC(C)(C)C)c2cc(Br)ccc21` [Example 171, N-(2-(5-bromo-3-neopentyl-1H-indol-1-yl)ethyl)propane-2-sulfonamide], the concentration for a half-maximal effect (EC50) is 500 to 3000 nM. `COc1ccc2c(CCN(C)S(=O)(=O)N(C)C)cn(CC(C)C)c2c1` [Example 117, N-{2-[6-methoxyl-1-(2-methylpropyl)-1H-indol-3-yl]ethyl}-N-methyl-N,N-dimethyl sulfuric diamide]: the EC50 was greater than 3000 nM. For `CC(C)(C)Cn1cc([C@H](NS(=O)(=O)C2CCC2)C(F)(F)F)c2ccc(-c3c(F)cccc3Cl)cc21` [Example 411, (S)—N-(1-(6-(2-chloro-6-fluorophenyl)-1-neopentyl-1H-indol-3-yl)-2,2,2-trifluoroethyl)cyclobutanesulfonamide], the EC50 is less than 500 nM. As to `CN(C)S(=O)(=O)NCCc1cn(C)c2cc(-c3ccncc3)ccc12` [Example 128, N′-{2-[6-(pyridin-4-yl)-1-methyl-1H-indol-3-yl]ethyl}-N,N-dimethylsulfuric diamide], the EC50 fell in the range of 500 to 3000 nM.

For the molecule `CC(C)C(=O)n1cc(C(C)NS(=O)(=O)N(C)C)c2ccc(-c3ccccc3Cl)cc21` (stereo not drawn) [Example 196, 1-[6-(2-chlorophenyl)-3-{1-[(dimethylsulfamoyl)amino]ethyl}-1H-indol-1-yl]-2-methylpropan-1-one], the EC50 was less than 500 nM. Still for that read-out and setting: the same measure for `CC(C)Cn1cc(CNS(=O)(=O)N2CCCC2)c2ccc(-c3ccncc3)cc21` [Compound 244]: less than 500 nM; for `CN(C)S(=O)(=O)NCCc1cn(Cc2ccccn2)c2cc(Br)ccc12` [Example 161, [(2-{6-bromo-1-[(pyridin-2-yl)methyl]-1H-indol-3-yl}ethyl)sulfamoyl]dimethylamine]: 500 to 3000 nM; for `CCC(=O)n1cc(CNS(=O)(=O)N(C)C)c2ccc(-c3ccncc3)cc21` [Example 187, 1-(3-{[(dimethylsulfamoyl)amino]methyl}-6-(pyridin-4-yl)-1H-indol-1-yl)propan-1-one]: greater than 3000 nM.
